Test results reported in publication PMC11823594, “Durlobactam in combination with β-lactams to combat Mycobacterium abscessus” (Antimicrobial Agents and Chemotherapy, 2024).
“Also recorded” adds a separate entry of the source. Where two headings read alike, the source gives them in different places.

Tests used:
[1] = system: Mab ATCC 19977; assay: Static drug-concentration time-kill (SCTK) assay with CART analysis; format: cell-based, Mycobacterium abscessus; conditions: clinically achievable concentrations, over 10 days; AVI 4 mg/L; DUR 12 mg/L + SUL 7 mg/L
[2] = biological target: T1, LDT1 (Mycobacterium abscessus, UniProt B1MDC1); assay: Mass spectrometry of covalent adduct formation; format: binding; conditions: protein:drug 1:20, 2 h; mass accuracy ±5 Da; (−) = no change
T1 sequence (B1MDC1 entry or part of it): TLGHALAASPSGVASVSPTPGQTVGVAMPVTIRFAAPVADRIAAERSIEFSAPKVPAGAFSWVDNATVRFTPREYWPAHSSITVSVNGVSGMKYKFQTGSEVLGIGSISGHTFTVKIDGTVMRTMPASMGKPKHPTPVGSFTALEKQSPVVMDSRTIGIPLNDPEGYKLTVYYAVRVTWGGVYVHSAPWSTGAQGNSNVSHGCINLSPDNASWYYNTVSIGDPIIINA
Experimental: (§1) Truncated sequences of LDT1-5, DDC, PBP B, and PBP-lipo (Δ1–41) were generated by Celtek Biosciences and cloned into the pET28(a) + vector with a tobacco etch virus (TEV) protease cleavage site before the start codon. Clones were transformed into Escherichia coli BL21 (DE3) and grown to an OD600 of 0.6–0.8. […] Cell pellets were collected and stored at −20°C overnight, then resuspended in a buffer containing 50 mM Tris (pH 8.0), 400 mM sodium chloride, and 1 mM Tris (2-carboxyethyl) phosphine hydrochloride (TCEP), followed by sonication and centrifugation. The supernatant was purified using a His Prep FF 16/10 column (GE Healthcare) and eluted with 500 mM imidazole. Eluted protein was dialyzed overnight at 4°C in a buffer with 50 mM Tris (pH 8.0), 150 mM sodium chloride, and 0.5 mM TCEP in the presence of His-tagged TEV protease. To remove the His tag, the mixture was passed over the His Prep FF 16/10 column again.
(§2) The purified proteins listed above were incubated at room temperature with β-lactams or BLIs at a molar ratio of 1:20 for 2 h. The reactions were then quenched with acetonitrile and diluted to 1 mL with 0.1% formic acid in water. Samples were analyzed using a quadrupole time-of-flight (Q-TOF) Waters Synapt-G2-Si electrospray ionization mass spectrometer (ESI-MS) and a Waters Acquity H class ultra-performance liquid chromatography (UPLC) system, equipped with a BEH C18 1.7 µm column (2.1 × 50 mm). The MS was tuned with the following settings: capillary voltage set at 3 kV, sampling cone at 35 V, source offset at 35, source temperature of 100°C, desolvation temperature of 500°C, cone gas flow rate at 100 L/h, desolvation gas flow rate at 800 L/h, and nebulizer set at 6.0. The mobile phases consisted of 0.1% formic acid in water and 0.1% formic acid in 100% acetonitrile, with gradient elution from 10% to 90% of […] over 11 min. The system’s mass accuracy was ±5 Da.

[3] = biological target: T2, LDT5 (Mycobacterium abscessus, UniProt B1MM58); assay: Mass spectrometry of covalent adduct formation; format: binding; conditions: protein:drug 1:20, 2 h; mass accuracy ±5 Da; (−) = no change
T2 sequence (B1MM58 entry or part of it): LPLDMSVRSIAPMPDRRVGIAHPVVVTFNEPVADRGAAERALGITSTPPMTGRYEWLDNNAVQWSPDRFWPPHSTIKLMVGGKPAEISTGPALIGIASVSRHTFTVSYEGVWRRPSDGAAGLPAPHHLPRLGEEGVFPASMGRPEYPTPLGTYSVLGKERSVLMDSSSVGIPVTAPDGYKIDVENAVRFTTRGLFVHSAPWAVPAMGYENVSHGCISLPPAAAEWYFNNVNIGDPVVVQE
Experimental: as §1, §2

[4] = biological target: BlaMab (Mycobacterium abscessus, UniProt B1MCI3); assay: Ki,app for the β-lactamase; format: biochemical
Sequence of BlaMab (B1MCI3 entry or part of it): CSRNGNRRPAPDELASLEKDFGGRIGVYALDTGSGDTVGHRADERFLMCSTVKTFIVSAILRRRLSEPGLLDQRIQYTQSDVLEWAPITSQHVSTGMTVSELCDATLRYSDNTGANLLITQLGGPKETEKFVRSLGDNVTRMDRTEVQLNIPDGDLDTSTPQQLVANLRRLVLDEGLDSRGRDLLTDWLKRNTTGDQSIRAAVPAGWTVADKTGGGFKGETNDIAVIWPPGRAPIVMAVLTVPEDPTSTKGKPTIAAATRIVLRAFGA

[5] = biological target: T1, LDT1; assay: Steady-state kinetics with nitrocefin (Ki,app); format: biochemical; conditions: for Ki: Ki,app LDT1, nitrocefin at 5 × Km; for Ratio of fCss,avg to Ki,app, LDT1: in parentheses in Table 3
Experimental: (§3) Steady-state kinetic studies were conducted using purified LDTs and PBPs (LDT1-5, PBP B, PBP-lipo, and DDC) as previously described ([20]). The assays were performed using a BioTek Synergy2 multimode reader in conjunction with Gen5 analysis software. Increasing concentrations of NCF (Δε482 = 17,400 M^⁻¹ cm^⁻¹) were used, while fixed concentrations of the LDTs and PBPs were monitored for changes in absorbance at 482 nm over a time period of 0 to 10 min. To determine reaction velocities, a 0.25 cm path length was employed. The steady-state kinetic parameters (Vmax, kcat, and Km) were obtained by fitting the data to the Henri-Michaelis-Menten equation using a nonlinear least-squares fit in Origin 8.1 software (OriginLab, Northampton, MA). The reaction rate (v) at a given substrate concentration ([S]) was calculated according to the following equations: […]
(§4) To determine the apparent inhibition constants (Ki,app) for β-lactams and BLIs, the following experimental condition was employed: NCF as a substrate at a concentration of 5 × Km, LDT/ PBP enzymes with fixed concentration, and β-lactams and BLIs with various concentrations. Changes in absorbance at 482 nm were measured over a period of 0–30 min for each concentration of β-lactams and BLIs. Data were linearized using a Dixon plot, plotting the inverse changes in absorbance (1/ΔA) against the concentrations of β-lactams and BLIs. The observed Ki,app was determined directly from the Dixon plot, and these values were corrected for substrate concentration and affinity for the LDT using the following equation:
(§5) Ki,app=observed Ki,app/1+[NCF]/Km NCF

[6] = biological target: LDT2 (Mycobacterium abscessus, UniProt B1MMQ4); assay: Steady-state kinetics with nitrocefin (Ki,app); format: biochemical; conditions: for Ki: Ki,app LDT2, nitrocefin at 5 × Km; for Ratio of fCss,avg to Ki,app, LDT2: in parentheses in Table 3
Sequence of LDT2 (B1MMQ4 entry or part of it): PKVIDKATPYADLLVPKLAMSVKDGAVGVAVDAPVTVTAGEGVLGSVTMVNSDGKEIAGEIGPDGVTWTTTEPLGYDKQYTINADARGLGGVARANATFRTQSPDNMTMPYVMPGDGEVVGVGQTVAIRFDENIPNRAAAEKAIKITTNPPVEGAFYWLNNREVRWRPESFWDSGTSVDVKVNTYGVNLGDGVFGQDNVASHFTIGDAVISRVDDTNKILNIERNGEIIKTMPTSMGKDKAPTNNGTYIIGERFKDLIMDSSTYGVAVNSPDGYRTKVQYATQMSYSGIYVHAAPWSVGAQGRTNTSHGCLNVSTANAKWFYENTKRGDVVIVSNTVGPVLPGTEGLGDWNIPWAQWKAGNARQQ
Experimental: as §3, §4, §5

[7] = biological target: LDT4 (Mycobacterium abscessus, UniProt B1MKW1); assay: Steady-state kinetics with nitrocefin (Ki,app); format: biochemical; conditions: in parentheses in Table 3
Sequence of LDT4 (B1MKW1 entry or part of it): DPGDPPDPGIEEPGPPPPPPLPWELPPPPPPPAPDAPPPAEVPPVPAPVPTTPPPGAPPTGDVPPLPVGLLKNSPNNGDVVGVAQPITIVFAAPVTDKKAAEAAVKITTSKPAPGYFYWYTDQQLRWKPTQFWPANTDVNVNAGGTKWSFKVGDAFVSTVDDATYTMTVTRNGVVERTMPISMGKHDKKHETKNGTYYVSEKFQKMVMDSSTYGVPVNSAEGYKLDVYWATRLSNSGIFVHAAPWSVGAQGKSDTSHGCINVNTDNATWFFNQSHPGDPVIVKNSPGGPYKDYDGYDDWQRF
Experimental: as §3, §4, §5

[8] = biological target: T2, LDT5; assay: Steady-state kinetics with nitrocefin (Ki,app); format: biochemical; conditions: in parentheses in Table 3
Experimental: as §3, with “Increasing concentrations of NCF (Δε482 = 17,400 M^⁻¹ cm^⁻¹) were used, while fixed concentrations of the LDTs and PBPs were monitored for changes in absorbance at 482 nm over a time period of 0 to 10 min.” left out
Changes in absorbance at 482 nm were measured over a period of 0–30 min for each concentration of β-lactams and BLIs. Data were linearized using a Dixon plot, plotting the inverse changes in absorbance (1/ΔA) against the concentrations of β-lactams and BLIs. The observed Ki,app was determined directly from the Dixon plot, and these values were corrected for substrate concentration and affinity for the LDT using the following equation:
as §5

[9] = human, in vivo; cited from earlier work
[10] = biological target: DDC (Mycobacteroides abscessus, UniProt B1MDJ1); assay: Mass spectrometry of covalent adduct formation; format: binding; conditions: protein:drug 1:20, 2 h; mass accuracy ±5 Da; (−) = no change
Sequence of DDC (B1MDJ1 entry or part of it): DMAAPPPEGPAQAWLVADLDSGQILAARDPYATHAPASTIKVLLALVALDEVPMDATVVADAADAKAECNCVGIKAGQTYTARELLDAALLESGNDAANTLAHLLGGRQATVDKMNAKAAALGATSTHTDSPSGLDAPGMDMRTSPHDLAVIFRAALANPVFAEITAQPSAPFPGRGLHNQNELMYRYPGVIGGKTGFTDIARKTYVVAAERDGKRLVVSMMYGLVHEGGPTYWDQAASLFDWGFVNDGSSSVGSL
Experimental: as §1, §2

[11] = biological target: LDT3 (Mycobacterium abscessus, UniProt B1MHQ4); assay: Steady-state kinetics with nitrocefin (Ki,app); format: biochemical; conditions: in parentheses in Table 3
Sequence of LDT3 (B1MHQ4 entry or part of it): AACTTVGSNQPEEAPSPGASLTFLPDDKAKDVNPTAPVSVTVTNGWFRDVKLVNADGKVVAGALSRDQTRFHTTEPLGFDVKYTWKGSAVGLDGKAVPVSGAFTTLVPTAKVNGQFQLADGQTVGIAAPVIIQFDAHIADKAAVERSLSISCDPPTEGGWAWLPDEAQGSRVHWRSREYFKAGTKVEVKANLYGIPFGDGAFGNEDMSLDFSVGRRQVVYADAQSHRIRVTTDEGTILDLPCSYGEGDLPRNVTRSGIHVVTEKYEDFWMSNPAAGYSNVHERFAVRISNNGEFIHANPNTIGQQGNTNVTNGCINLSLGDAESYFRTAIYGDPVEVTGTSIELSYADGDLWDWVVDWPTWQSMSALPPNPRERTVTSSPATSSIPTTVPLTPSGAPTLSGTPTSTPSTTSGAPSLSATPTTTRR
Experimental: as §3, §4, §5

[12] = read-out: Ki,app BlaMab (converted)

## CC1(C)S[C@@H]2[C@H](NC(=O)[C@H](N)c3ccc(O)cc3)C(=O)N2[C@H]1C(=O)O [Amoxicillin, amoxicillin]
[1]
  Bacterial killing (log10 reduction) in time-kill: no killing effect
[2]
  Observed MW (+ change in mw), LDT1 (23,059): 28,220 (−) Da
[3]
  Observed MW (+ change in mw), LDT5 (28,220): 28,220 (−) Da
[4]; read-out: Ki,app BlaMab
  Ki: < 13.7 µM

## NC(=O)[C@@H]1CC[C@@H]2CN1C(=O)N2OS(=O)(=O)O [Avibactam, avibactam]
[1]
  Bacterial killing (log10 reduction) in time-kill: no effect on bacterial growth inhibition or killing; also recorded: no effect
[2]
  Observed MW (+ change in mw), LDT1 (23,059): 23,325 (+265) Da
[3]
  Observed MW (+ change in mw), LDT5 (28,220): 28,220 (−) Da
[5]
  Ki: 26.4 µM
  Ratio of fCss,avg to Ki,app, LDT1: 0.7
[6]
  Ki: 1.7 µM
  Ratio of fCss,avg to Ki,app, LDT2: 11
[7]
  Ratio of fCss,avg to Ki,app, LDT4: < 0.02
[4]; [12]
  Ki: 0.3 µM

## CO/N=C(\C(=O)N[C@@H]1C(=O)N2C(C(=O)O)=C(COC(N)=O)CS[C@H]12)c1ccco1 [Cefuroxime, cefuroxime]
[2]
  Observed MW (+ change in mw), LDT1 (23,059): 23,059 (−) Da
[6]
  Ki: 1.18 µM
  Ratio of fCss,avg to Ki,app, LDT2: 24
[8]
  Ratio of fCss,avg to Ki,app, LDT5: 7.5
[9]
  Total clearance after IV dosing: 9.0 to 16 L/h

## CC1=C[C@@H]2CN(C(=O)N2OS(=O)(=O)O)[C@@H]1C(N)=O [Durlobactam, durlobactam]
[1]
  Bacterial killing (log10 reduction) in time-kill: ~ 2 log10 CFU/mL
[10]
  Observed MW (+ change in mw), DDC (26,788): 27,066 (+276) Da
[2]
  Observed MW (+ change in mw), LDT1 (23,059): 23,336 (+277) Da
[3]
  Observed MW (+ change in mw), LDT5 (28,220): 28,496 (+276) Da
[5]
  Ki: 418 µM
  Ratio of fCss,avg to Ki,app, LDT1: 0.1
[7]
  Ratio of fCss,avg to Ki,app, LDT4: 6
[8]
  Ratio of fCss,avg to Ki,app, LDT5: 145
[4]; [12]
  Ki: 0.00397 µM

## C[C@@H](O)[C@H]1C(=O)N2C(C(=O)O)=C(SCCN=CN)C[C@H]12 [Imipenem, imipenem]
[5]
  Ki: 0.00668 µM
  Ratio of fCss,avg to Ki,app, LDT1: 5714
[6]
  Ki: 0.00668 µM
  Ratio of fCss,avg to Ki,app, LDT2: 6667
[7]
  Ratio of fCss,avg to Ki,app, LDT4: 3
[8]
  Ratio of fCss,avg to Ki,app, LDT5: 0.4
[4]; [12]
  Ki: 17 µM

## C[C@@H](O)[C@H]1C(=O)N2C(C(=O)O)=C(S[C@H]3CC[S@@+]([O-])C3)S[C@H]12 [Sulopenem, sulopenem]
[10]
  Observed MW (+ change in mw), DDC (26,788): 27,138 (+349) Da
[3]
  Observed MW (+ change in mw), LDT5 (28,220): 28,306 (+86) Da
[6]
  Ki: 0.2 µM
  Ratio of fCss,avg to Ki,app, LDT2: 29
[11]
  Ratio of fCss,avg to Ki,app, LDT3: 0.4
[7]
  Ratio of fCss,avg to Ki,app, LDT4: 1.1
[8]
  Ratio of fCss,avg to Ki,app, LDT5: 1.5

## C[C@@H](O)[C@H]1C(=O)N2C(C(=O)O)=C(SC3CN(C4=NCCS4)C3)[C@H](C)[C@H]12 [Tebipenem, tebipenem]
[10]
  Observed MW (+ change in mw), DDC (26,788): 27,173 (+385) Da
[2]
  Observed MW (+ change in mw), LDT1 (23,059): 23,443 (+384) Da
[3]
  Observed MW (+ change in mw), LDT5 (28,220): 28,220 (−) Da
[5]
  Ki: 4.95 µM
  Ratio of fCss,avg to Ki,app, LDT1: 0.9
[6]
  Ki: 0.0261 µM
  Ratio of fCss,avg to Ki,app, LDT2: 170
[7]
  Ratio of fCss,avg to Ki,app, LDT4: 2.4
[4]; [12]
  Ki: < 13 µM
